Laboratory results as given in US12297192B2, “Crystal form of pyrimidine sulfonamide compound and preparation method therefor” (WUXI BIOCITY BIOPHARMACEUTICS CO., LTD., priority 2019, dated 2025).
Several values for one entry are separate records, joined by “and”; a condition that tells them apart may be missing. Identical values can stand only once. Where a SMILES comes first, the peptide text is derived from it. [ ]: non-standard residue; d: D form.

How the values were obtained:
human ETB receptors = molecular target: T1, human ETB receptors (Homo sapiens, UniProt P24530); assay: In vitro antagonistic effect on human ETB receptors (Ca2+ fluorescence, transfected CHO cells); assay type: cell-based; conditions: 0.3 nM endothelin-1
T1 construct: host or cells: CHO cells
T1 sequence (P24530 27-442): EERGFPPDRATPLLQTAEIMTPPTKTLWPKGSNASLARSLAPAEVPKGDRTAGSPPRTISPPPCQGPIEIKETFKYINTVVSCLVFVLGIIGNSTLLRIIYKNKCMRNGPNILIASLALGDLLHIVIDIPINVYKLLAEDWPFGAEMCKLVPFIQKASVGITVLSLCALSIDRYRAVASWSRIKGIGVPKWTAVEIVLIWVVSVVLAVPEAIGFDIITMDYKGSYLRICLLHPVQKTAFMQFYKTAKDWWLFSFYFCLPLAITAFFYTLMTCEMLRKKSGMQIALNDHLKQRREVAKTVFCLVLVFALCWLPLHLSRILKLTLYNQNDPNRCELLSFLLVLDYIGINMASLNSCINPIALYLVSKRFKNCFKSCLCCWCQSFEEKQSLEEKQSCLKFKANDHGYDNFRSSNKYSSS
Description: The antagonist activities of the compounds on human ETB receptors expressed in transfected CHO cells were assessed by measuring the effects of the compounds on changes in cytoplasmic Ca^2+ ion signaling induced by an agonist of human ETB receptor using a fluorescence assay. The functional activity of the ETB receptor antagonistic effect was tested at Eurofins-Cerep SA according to current standard operating procedures.
• 1. Cells were suspended in DMEM buffer (Invitrogen) and then distributed at a density of 3×10^4 cells/well in 384 plates (100 μL/well). • 2. HBSS buffer (Invitrogen) supplemented with 20 mM Hepes (Invitrogen) (pH 7.4) was mixed with the fluorescent probe (Fluo4 Direct, Invitrogen) and added to each well. Equilibrated with the cells for 60 minutes at 37° C. and then for 15 minutes at 22° C. • 3. The assay plate was placed in a microplate reader (CellLux, PerkinElmer). DMSO solution of the test compound and the positive control or HBSS buffer in appropriate concentration was added. […] Then the change in fluorescence intensity was measured. The fluorescence intensity is in proportion to the Ca^2+ ion concentration of the free cytosol. • 4. […] The standard positive control was BQ-788 and several concentrations were tested in each experiment and the data was analyzed using Prism to produce a concentration-response curve to calculate the IC50 values of the compounds. […]

human ETA receptors = molecular target: T2, human ETA receptors (Homo sapiens, UniProt P25101); assay: In vitro antagonistic effect on human ETA receptors (Ca2+ fluorescence, SK-N-MC cells); assay type: cell-based; conditions: SK-N-MC cells, 1 nM endothelin-1
T2 construct: endogenously expressed human ETA receptors in SK-N-MC cells; host or cells: SK-N-MC cells
T2 sequence (P25101 21-427): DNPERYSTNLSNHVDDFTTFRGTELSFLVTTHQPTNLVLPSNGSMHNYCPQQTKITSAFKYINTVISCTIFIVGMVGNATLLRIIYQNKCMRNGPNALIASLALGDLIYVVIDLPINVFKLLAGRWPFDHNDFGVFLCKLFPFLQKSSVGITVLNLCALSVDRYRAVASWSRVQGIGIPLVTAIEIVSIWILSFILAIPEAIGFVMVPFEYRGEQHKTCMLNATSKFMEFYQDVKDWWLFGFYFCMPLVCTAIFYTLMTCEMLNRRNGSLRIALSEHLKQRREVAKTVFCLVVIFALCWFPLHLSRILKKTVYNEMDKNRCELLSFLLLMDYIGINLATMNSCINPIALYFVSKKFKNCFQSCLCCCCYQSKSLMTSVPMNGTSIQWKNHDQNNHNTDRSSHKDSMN
Description: The antagonistic activity of the compounds on endogenously expressed human ETA receptors in SK-N-MC cells was assessed by measuring the effects of the compounds on changes in cytoplasmic Ca^2+ ion signaling induced by an agonist of human ETA receptor using a fluorescence assay. The functional activity of the ETA receptor antagonistic effect was tested at Eurofins-Cerep SA according to current standard operating procedures.
• 1. Cells were suspended in Dulbecco's modified Eagle medium solution (DMEM, Invitrogen) supplemented with 1% FCSd and then distributed at a density of 5×10^4 cells/well in 384 plates (100 μL/well). • 2. Hank's Balanced Salt Solution (HBSS, Invitrogen) supplemented with 20 mM 4-(2-hydroxyethyl) piperazine-1-ethanesulfonic acid (Hepes, Invitrogen) (pH 7.4) was mixed with the fluorescent probe (Fluo4 NW, Invitrogen) and added to each well. Equilibrated with the cells for 60 minutes at 37° C. and then for 15 min at 22° C. • 3. The assay plate was placed in a microplate reader (CellLux, PerkinElmer). DMSO solution of the test compound and the positive control in appropriate concentration or HBSS buffer was added. After 5 minutes, 1 nM endothelin-1 or HBSS buffer (basal control) was added. Then the change in fluorescence intensity was measured. The fluorescence intensity is in proportion to the Ca^2+ ion concentration of the free cytosol. • 4. […] The standard positive control was BQ-123 and several concentrations were tested in each experiment and the data was analyzed using Prism to produce a concentration-response curve to calculate the IC50 values of the compounds. • 6.

Compound	IC50 (human ETB receptors)	IC50 (human ETA receptors)
CCCC[C@@H](NC(=O)[C@@H](Cc1cn(C(=O)OC)c2ccccc12)NC(=O)[C@H](CC(C)(C)C)NC(=O)N1[C@H](C)CCC[C@@H]1C)C(=O)O [BQ-788]	0.13 µM and 0.091 µM	–
CC(C)C[C@@H]1NC(=O)[C@@H](C(C)C)NC(=O)[C@@H]2CCCN2C(=O)[C@@H](CC(=O)O)NC(=O)[C@@H](Cc2c[nH]c3ccccc23)NC1=O [BQ-123, reference compound] (cyclo(L[dW][dD]P[dV]))	–	0.00061 µM and 0.00048 µM
